Data reported in patent US20230278958A1 (Merck Patent GmbH, priority 2020, published 2023).

Columns and labels:
YAP-TEAD interaction = experiment: SK-HEP-1 reporter assay (8x TEAD responsive elements driving NanoLuc luciferase); assay type: cell-based; conditions: Homo sapiens, SK-HEP1; SK-HEP-1 TEAD-NanoLuc reporter cells, 24 hour incubation, luciferase readout
Description: To identify inhibitors of YAP-TEAD interaction, 8× TEAD responsive elements driving the NanoLuc® luciferase gene were stably integrated into SK-HEP-1 cells (ECACC #: 91091816).
For the assay, cells were treated in duplicates with the test compounds in a 10-point dose, with the top concentration starting at 30 μM (final concentration in assay). After a 24 hour incubation at 37° C., 95% rH, and 5% CO2, a luciferase substrate/lysis reagent mix (NanoGlo™, Promega) was added to the cells, allowing the quantification of cellular luciferase activity.
Cell Media: The cells were cultured in the following media: MEM, +10% FBS, +1× GlutaMAX, +1 mM Sodium-Pyruvate, +100 μM Non-essential amino acids, +0.1 mg/ml Hygromycin. The media used for the assay was: MEM (w/o Phenol Red), +10% FBS, +1× GlutaMAX, +1 mM Sodium-Pyruvate, +100 μM Non-essential amino acids, +0.5% Pen/Strep
(§1) Reagents: The reagents used are listed below:
(§2) Cell culture: The cells were examined using an inverted microscope to check for health and cell density. To dissociate adherent cells, the monolayer of cells was washed once with pre-warmed PBS. After removing the PBS, 3 ml pre-warmed Accutase® was added to a F75 flask, dispersed evenly and the flask was allowed to sit in incubator for ˜4-5 minutes.
(§3) When a single cell suspension was obtained, 7 ml of prewarmed growth media was added and resuspended with the cells. The cell suspension was transferred to a sterile 15 ml conical centrifuge tube, and spun for 5 min at 300×g, RT. The supernatant was discarded and the pellet was resuspended in 10 ml of pre-warmed growth media.
(§4) The total cell count was determined, and 20 μl of the desired cell number was added to each well of a 384 well plate using a Multidrop Combi. The plates were then incubated for 24 hours at 37° C., 95% rH, and 5% CO2.
(§5) Compound treatment: 24 hours after seeding, the cells were treated with compounds.
(§6) A 1:333 dilution of compounds, diluted in DMSO, was made to get a final concentration of 0.3% DMSO per well. To transfer the compounds to the assay plate, 120 nl was shot from Labcyte low dead volume plates to the cell plates containing 20 μl media/well with the ECHO 555 liquid handling system.
(§7) After treatment, the cells were fed with 20 μl fresh pre-warmed assay media using a Multidrop combi.
The assay plates were then incubated for another 24 h at 37° C., 95% rH, and 5% CO2.
Luciferase readout: 24 h after treatment, the plates were taken out of the incubator and were allowed to equilibrate to RT. 30 μl of NanoGlo® reagent was added to the plates in the dark. Plates were shaken for 20 min on a Teleshake (˜1500 rpm) in the dark. The luminescence was then measured using an EnVision microplate reader. The IC50 values were generated using Genedata Screener®.
Experimental data in SK-HEP-1 reporter assay of the compounds shown in Table 1 are shown in Table 2 below and classified in the following groups: […]

NCI-H226 cells = experiment: Viability assay in NCI-H226 (Yap-dependent) cells, CyQUANT; assay type: cell-based; conditions: Homo sapiens, 96 hour incubation
Description: The ability of YAP-TEAD inhibitors to inhibit tumor cell growth was evaluated using two different cell lines: NCI-H226, which is a YAP dependent cell line, and SW620 cells, where YAP and TAZ were knocked out using CRISPR to generate a YAP independent cell line.
For the assay, cells were treated in duplicates with the test compounds in a 10-point dose, 1:3 dilution steps, with the top concentration starting at 30 μM (final concentration in assay). After a 96 hour incubation at 37° C., 95% rH, and 5% CO2, a cell-permeant DNA-binding dye that stains only healthy cells (CyQUANT®, Promega) was added to the cells, allowing the quantification of cell viability.
Cell Media: The NCI-H226 cells were cultured in the following media: RPMI 1640, +10% FBS, +1× GlutaMAX, +10 mM HEPES, +0.5% Pen/Strep. The SW620-KO cells were cultured in the following media: DMEM/F-12, +10% FBS, +1× GlutaMAX, +10 mM HEPES, +0.5% Pen/Strep.
as §1
as §2, with “health,” for “health and”, “density, etc.” for “density.”, “Accutase” for “Accutase®”
as §3, §4, §5, §6, §7
The assay plates were then incubated for 96 h at 37° C., 95% rH, and 5% CO2.
96h after treatment 30 μl of CyQuant® reagent was added to the assay plates using a Multidrop combi in the dark. The plates were then incubated for 1 hour at 37° C., 95% rH and 5% CO2. Thereafter, the assay plates were removed from the incubator and allowed to equilibrate to RT for 30 min in the dark without lid. Finally, they were measured using an EnVision microplate reader with a FITC bottom read program.
Experimental data in the Viability assay of the compounds shown in Table 1 are shown in Table 3 below and classified in the following groups: […]

SMILES | IC50 (YAP-TEAD interaction) | IC50 (NCI-H226 cells)
Cc1ccc2c(c1)c1cc(C(=O)NC[C@@H](O)CO)ccc1n2-c1ccc(C(F)(F)F)cc1 (single isomer, unassigned) [Compound 68, N-[(2R or 2S)-2,3-dihydroxypropyl]-6-methyl-9-[4-(trifluoromethyl)phenyl]-9H-carbazole-3-carboxamide] | 10 to 100 nM | –
Cc1ccc2c(c1)c1cc(C(=O)NC[C@H](O)CO)ccc1n2-c1ccc(C(F)(F)F)cc1 (single isomer, unassigned) [Compound 69, N-[(2S or 2R)-2,3-dihydroxypropyl]-6-methyl-9-[4-(trifluoromethyl)phenyl]-9H-carbazole-3-carboxamide] | 100 to 1000 nM | –
O=C(O)c1ccc2c(c1)c1cc(Cc3cccc(F)c3)ccc1n2-c1ccc(C(F)(F)F)cc1 [Compound 2, 6-[(3-fluorophenyl)methyl]-9-[4-(trifluoromethyl)phenyl]-9H-carbazole-3-carboxylic acid] | 100 to 1000 nM | 0.1 to 1 µM
O=C(O)c1ccc2c(c1)c1cc(Cc3ccccc3F)ccc1n2-c1ccc(C(F)(F)F)cc1 [Compound 3, 6-[(2-fluorophenyl)methyl]-9-[4-(trifluoromethyl)phenyl]-9H-carbazole-3-carboxylic acid] | 100 to 1000 nM | 1 to 10 µM
O=C(O)c1ccc2c(c1)c1cc(Cc3ccc(F)cc3)ccc1n2-c1ccc(C(F)(F)F)cc1 [Compound 4, 6-[(4-fluorophenyl)methyl]-9-[4-(trifluoromethyl)phenyl]-9H-carbazole-3-carboxylic acid] | 100 to 1000 nM | > 10 µM
O=C(O)c1ccc2c(c1)c1ccncc1n2-c1ccc(C(F)(F)F)cc1 [Compound 5, 9-[4-(trifluoromethyl)phenyl]-9H-pyrido[3,4-b]indole-6-carboxylic acid] | 100 to 1000 nM | 0.1 to 1 µM
O=C(O)c1ccc2c(c1)c1cnccc1n2-c1ccc(C(F)(F)F)cc1 [Compound 7, 5-[4-(trifluoromethyl)phenyl]-5H-pyrido[4,3-b]indole-8-carboxylic acid] | > 1000 nM | > 10 µM
N#Cc1ccc2c(c1)c1cc(C(=O)O)ccc1n2-c1ccc(C(F)(F)F)cc1 [Compound 12, 6-cyano-9-[4-(trifluoromethyl)phenyl]-9H-carbazole-3-carboxylic acid] | 10 to 100 nM | 1 to 10 µM
O=C(O)c1ccc2c(c1)c1cc(OC(F)(F)F)ccc1n2-c1ccc(C(F)(F)F)cc1 [Compound 15, 6-(trifluoromethoxy)-9-[4-(trifluoromethyl)phenyl]-9H-carbazole-3-carboxylic acid] | 10 to 100 nM | 0.001 to 0.1 µM
O=C(O)c1cc2c3ccccc3n(Cc3ccc(C(F)(F)F)cc3)c2cn1 [Compound 32, 9-{[4-(trifluoromethyl)phenyl]methyl}-9H-pyrido[3,4-b]indole-3-carboxylic acid] | > 1000 nM | –
O=C(NC1CC1)c1cc2c3cccnc3n(-c3ccc(C(F)(F)F)cc3)c2cn1 [Compound 36, N-cyclopropyl-8-[4-(trifluoromethyl)phenyl]-5,8,10-triazatricyclo[7.4.0.0^2,^7]trideca-1(9),2(7),3,5,10,12-hexaene-4-carboxamide] | 100 to 1000 nM | 0.1 to 1 µM
Cc1ccc2c(c1)c1cc(C(=O)NC3CC3)ccc1n2-c1ccc(C(F)(F)F)cc1 [Compound 37, N-cyclopropyl-6-methyl-9-[4-(trifluoromethyl)phenyl]-9H-carbazole-3-carboxamide] | 10 to 100 nM | 0.001 to 0.1 µM
Cc1ccc2c(c1)c1cc(C(=O)NCCO)ccc1n2-c1ccc(C(F)(F)F)cc1 [Compound 38, N-(2-hydroxyethyl)-6-methyl-9-[4-(trifluoromethyl)phenyl]-9H-carbazole-3-carboxamide] | 10 to 100 nM | 0.001 to 0.1 µM
Cc1ccc2c(c1)c1cc(C(=O)NCC(O)C(F)(F)F)ccc1n2-c1ccc(C(F)(F)F)cc1 (centres unmarked) [Compound 60, 6-methyl-N-(3,3,3-trifluoro-2-hydroxypropyl)-9-[4-(trifluoromethyl)phenyl]-9H-carbazole-3-carboxamide] | 100 to 1000 nM | –
Cc1ccc2c(c1)c1cc(C(=O)NCc3ccccn3)ccc1n2-c1ccc(OC(F)(F)F)cc1 [Compound 64, 6-methyl-N-[(pyridin-2-yl)methyl]-9-[4-(trifluoromethoxy)phenyl]-9H-carbazole-3-carboxamide] | > 1000 nM | –
Cc1ccc2c(c1)c1cc(C(=O)NCc3ncccn3)ccc1n2-c1ccc(OC(F)(F)F)cc1 [Compound 65, 6-methyl-N-[(pyrimidin-2-yl)methyl]-9-[4-(trifluoromethoxy)phenyl]-9H-carbazole-3-carboxamide] | > 1000 nM | –
Cc1ccc2c(c1)c1cc(C(=O)NCc3cnccn3)ccc1n2-c1ccc(OC(F)(F)F)cc1 [Compound 66, 6-methyl-N-[(pyrazin-2-yl)methyl]-9-[4-(trifluoromethoxy)phenyl]-9H-carbazole-3-carboxamide] | > 1000 nM | –
Cc1ccc2c(n1)c1cc(C(N)=O)ccc1n2-c1ccc(C(F)(F)F)cc1 [Compound 67, 2-methyl-5-[4-(trifluoromethyl)phenyl]-5H-pyrido[3,2-b]indole-8-carboxamide] | 10 to 100 nM | –
Cc1cc2c3cc(C(=O)NC4CC4)ccc3n(-c3ccc(C(F)(F)F)cc3)c2cc1C [Compound 70, N-cyclopropyl-6,7-dimethyl-9-[4-(trifluoromethyl)phenyl]-9H-carbazole-3-carboxamide] | 10 to 100 nM | –
Cc1ccc2c(c1)c1cc(C(=O)N[C@H](C)CO)ccc1n2-c1ccc(C(F)(F)F)cc1 [Compound 71, N-[(2R)-1-hydroxypropan-2-yl]-6-methyl-9-[4-(trifluoromethyl)phenyl]-9H-carbazole-3-carboxamide] | 100 to 1000 nM | –
Cc1ccc2c(c1)c1cc(C(=O)N[C@@H](C)CO)ccc1n2-c1ccc(C(F)(F)F)cc1 [Compound 72, N-[(2S)-1-hydroxypropan-2-yl]-6-methyl-9-[4-(trifluoromethyl)phenyl]-9H-carbazole-3-carboxamide] | 100 to 1000 nM | –
Cc1ccc2c(c1)c1cc(C(=O)NCc3ccncn3)ccc1n2-c1ccc(OC(F)(F)F)cc1 [Compound 73, 6-methyl-N-[(pyrimidin-4-yl)methyl]-9-[4-(trifluoromethoxy)phenyl]-9H-carbazole-3-carboxamide] | > 1000 nM | –
CNC(=O)c1ccc2c(c1)c1cc(C)c(C)cc1n2-c1ccc(C(F)(F)F)cc1 [Compound 74, N,6,7-trimethyl-9-[4-(trifluoromethyl)phenyl]-9H-carbazole-3-carboxamide] | 1 to 10 nM | –
Cc1cc2c3cc(C(=O)NCCO)ccc3n(-c3ccc(C(F)(F)F)cc3)c2cc1C [Compound 75, N-(2-hydroxyethyl)-6,7-dimethyl-9-[4-(trifluoromethyl)phenyl]-9H-carbazole-3-carboxamide] | 10 to 100 nM | –
Cc1cc2c3cc(C(N)=O)ccc3n(-c3ccc(C(F)(F)F)cc3)c2cc1C [Compound 76, 6,7-dimethyl-9-[4-(trifluoromethyl)phenyl]-9H-carbazole-3-carboxamide] | 10 to 100 nM | –
